Data: patent US12491185B2, “Inhibitors of mPTP” (NRG Therapeutics Ltd, priority 2023, dated 2025)

Tested on: mPTP
Experiment: mPTP activity (Ca2+ retention) assay in isolated rat liver mitochondria
Type: biochemical
Settings: examples tested by different contract research organisations, believed comparable
Excerpt: Pharmacological inhibition or modulation of the mPTP can be measured in well characterised ‘Ca^2+ retention’ assays performed in isolated mitochondria. In vitro, isolated mitochondria rapidly sequester exogenous Ca^2+ until the intramitochondrial Ca^2+ concentration reaches the threshold for mPTP activation. Once the pore is activated, mitochondrial integrity is compromised and the stored Ca^2+ is released. The distribution of Ca^2+ between extra- and intra-mitochondrial compartments can be measured in real time with the use of membrane-impermeant Ca^2+ sensitive fluorescent dyes. Depending on the configuration of the assay, inhibition or modulation of the mPTP either delays the opening of the pore or increases the concentration of Ca^2+ required to induce mPTP opening.
MPTP activity was measured in mitochondria freshly isolated from female Sprague Dawley (250 to 300 gram) rat livers using the following method. Cervical dislocation was performed on the rat. The liver was then perfused in-situ with −40 ml cold Dulbecco's Phosphate Buffered Saline (DPBS) prior to dissection and transferred into 30 ml Isolation Buffer (250 mM Sucrose, 10 mM KCl, 1 mM EGTA, 1 mM EDTA, 25 mM HEPES, adjusted to pH 7.5 with 1M NaOH). Each lobe of the liver was then removed from the buffer, minced using tweezers and a scalpel into −5 mm pieces then transferred into a 50 ml Potterton dounce homogenization tube on ice containing 30 ml ice-cold centrifugation buffer (300 mM Trehalose, 25 mM HEPES, 1 mM EGTA, 1 mM EDTA, 10 mM KCl, adjusted to pH 7.5 with 1M NaOH and supplemented with 0.1% bovine serum albumin (BSA) and complete protease inhibitor cocktail (one tablet of inhibitor per 50 mls of buffer). Homogenisation was carried out using a teflon pestle at 1800 rpm. The slurry was centrifuged at 800 g for 10 min at 4° C., then the supernatant centrifuged at 10,000 g for 10 min. The pellet was washed once with FLIPR assay buffer (75 mM Mannitol, 25 mM Sucrose, 5 mM Potassium Phosphate Monobasic, 20 mM Tris base, 100 mM KCl, 0.1% BSA adjusted to pH 7.4 with 5M HCl) centrifuged again, then resuspended in FLIPR assay buffer to a concentration of 8.8 mg/ml protein.
Tested compounds (10 mM stock in DMSO) were serially diluted in DMSO in half log steps to generate 10 test concentrations (final concentrations in assay 30 μM to 1 nM). An intermediate dilution of 5 μl DMSO samples into 247 μl FLIPR assay buffer was carried out prior to transfer of 5 μl into duplicate wells of a 384 well polypropylene assay plate. Control wells were 0.5% (v/v) DMSO and 5 μM cyclosporin A.
A stock mitochondria/Fluo5N assay solution was prepared in 5.6 ml FLIPR assay buffer (at RT) supplemented with succinate disodium salt (10 mM), rotenone (1 μM), Fluo5N pentapotassium salt (2 μM) and 1 ml mitochondria suspension, then transferred (15 μl) into the assay plate containing test compounds and incubated for 10 min at RT. Assay plates were processed for fluorescence detection on either a FLIPR Tetra (Molecular Devices) or CLARIOstar (BMG) plate reader. For kinetic fluorescence detection on the FLIPR, dye fluorescence was measured every 3 sec for a total of 10 min. After 12 sec, a 2.5 μl bolus of CaCl2 (75 μM) was added from a source plate containing 675 μM CaCl2 in FLIPR assay buffer. Alternatively, the 2.5 μl addition of CaCl2 was performed using a Viaflow 384, plates were incubated at RT for 10 min, and dye fluorescence measured after 10 min on the CLARIOstar plate reader. pIC50 values for tested compounds were calculated using the fluorescence value collected at the 10 min timepoint on either plate reader, with % inhibition calculated using the DMSO control and cyclosporin A values as 0 and 100% respectively.

SMILES | mPTP Rat liver pIC50
Cn1nc(C(=O)NC[C@H](Cc2ccc(F)c(F)c2)C2CC2)[nH]c1=S [Example 118, (R)-N-(2-cyclopropyl-3-(3,4-difluorophenyl)propyl)-1-methyl-5-thioxo-4,5-dihydro-1H-1,2,4-triazole-3-carboxamide] | 6.26
Cn1nc(C(=O)NCC2(Cc3ccc(F)cc3F)CC23CC3)[nH]c1=O (centres unmarked) [Example 123] | 7.04
Cn1nc(C(=O)NC[C@H](Cc2ccccc2)C2CC2)[nH]c1=O [Example 124] | 6.76
CC[C@H](CNC(=O)c1nn(C)c(=O)[nH]1)Cc1c(F)cc(F)cc1F [Example 125] | 6.55
O=C(NCC1(Cc2ccc(F)cc2F)CCC1)c1cn[nH]c(=O)c1 [Example 127] | <4.57
O=C(NCC1(Cc2ccc(F)cc2F)CCC1)c1cc(O)ccn1 [Example 128] | 6.01
CCC(F)(CNC(=O)c1nn(C)c(=O)[nH]1)Cc1ccc(F)cc1F (centres unmarked) [Example 129, N-(2-(2,4-difluorobenzyl)-2-fluorobutyl)-1-methyl-5-oxo-4,5-dihydro-1H-1,2,4-triazole-3-carboxamide] | 6.45
O=C(NCC1(Cc2ccc(F)cc2F)CCC1)c1ccn[nH]c1=O [Example 134, N-((1-(2,4-difluorobenzyl)cyclobutyl)methyl)-3-oxo-2,3-dihydropyridazine-4-carboxamide] | <4.57
O=C(NCC1(Cc2ccc(F)cc2F)CCC1)c1c[nH]c(=O)cn1 [Example 138, N-((1-(2,4-difluorobenzyl)cyclobutyl)methyl)-5-oxo-4,5-dihydropyrazine-2-carboxamide] | <4.57
O=C(NCC1(Cc2ccc(F)cc2F)CCC1)c1nnn[nH]1 [Example 140] | <4.57
O=C(NC[C@H](Cc1ccc(F)c(F)c1)C1CC1)c1cncc(=O)[nH]1 [Example 143] | 6.47
O=C(NCC1(Cc2ccc(F)cc2F)CCC1)c1cnc(=O)[nH]c1 [Example 145] | <4.57
O=C(NC[C@H](Cc1ccc(F)cc1F)C1CC1)c1cnc(=O)[nH]c1 [Example 147] | <4.57
O=C(NCC1(Cc2cc(F)c(F)cc2F)CCC1)c1cncc(=O)[nH]1 [Example 148] | 6.58
O=C(NC[C@H](Cc1ccc(F)c(F)c1)C1CC1)c1cncc(=O)[nH]1 [Example 151] | 5.88
O=C(NC[C@H](Cc1cc(F)ccc1F)C1CC1)c1ccc(=O)[nH]n1 [Example 155] | 5.33
CCc1cccc(CC2(CNC(=O)c3nn(C)c(=O)[nH]3)CCC2)c1 [Example 162, N-((1-(3-ethylbenzyl)cyclobutyl)methyl)-1-methyl-5-oxo-4,5-dihydro-1H-1,2,4-triazole-3-carboxamide] | 5.26

SMILES | mPTP Rat liver pIC50
CC[C@H](CNC(=O)c1nccc(=O)[nH]1)Cc1ccc(F)cc1F [Example 163] | 5.38
CCC(CNC(=O)c1nn(C)c(=O)[nH]1)Cc1ccc(F)c(F)c1 (centres unmarked) [Example 164] | 6.56
Cc1cc(F)ccc1CC1(CNC(=O)c2cncc(=O)[nH]2)CCC1 [Example 166] | 5.7
O=C(NCC1(Cc2cccc(F)c2)CCC1)c1cnn[nH]1 [Example 167] | <4.57
Cc1cc(F)ccc1CC1(CNC(=O)c2nccc(=O)[nH]2)CCC1 [Example 168, N-((1-(4-fluoro-2-methylbenzyl)cyclobutyl)methyl)-6-oxo-1,6-dihydropyrimidine-2-carboxamide] | 6.07
O=C(NCC1(Cc2ccc(F)cc2F)CCC1)c1cnn[nH]1 [Example 170] | 5.65
O=C(NCC1(Cc2cccc(F)c2)CCC1)c1nnc[nH]1 [Example 171] | 4.87
Cn1c(C(=O)NCC2(Cc3ccc(F)cc3F)CCC2)n[nH]c1=O [Example 173, N-((1-(2,4-difluorobenzyl)cyclobutyl)methyl)-4-methyl-5-oxo-4,5-dihydro-1H-1,2,4-triazole-3-carboxamide] | <4.57
O=C(NCC1(Cc2cc(F)cc(F)c2)CCC1)c1ccc(=O)[nH]n1 [Example 176] | 4.8
CCC(Cc1ccc(F)cc1F)CN(C)C(=O)c1nn(C)c(=O)[nH]1 (centres unmarked) [Example 179, N-(2-(2,4-difluorobenzyl)butyl)-N,1-dimethyl-5-oxo-4,5-dihydro-1H-1,2,4-triazole-3-carboxamide] | <4.57
CSc1cccc(CC2(CNC(=O)c3nn(C)c(=O)[nH]3)CCC2)c1 [Example 182] | 5.02
O=C(NC[C@H](Cc1c(F)cc(F)cc1F)C1CC1)c1nccc(=O)[nH]1 [Example 183, (R)—N-(2-cyclopropyl-3-(2,4,6-trifluorophenyl)propyl)-6-oxo-1,6-dihydropyrimidine-2-carboxamide] | 5.4
O=C(NCC1(Cc2ccc(F)cc2F)CCOCC1)c1cc(=O)[nH]o1 [Example 184] | 6.14
O=C(NCC1(Cc2ccc(F)cc2F)CCOCC1)c1nccc(=O)[nH]1 [Example 185] | 6.34
O=C(NCC1(Cc2ccc(F)cc2F)CC12CC2)c1nccc(=O)[nH]1 (centres unmarked) [Example 186] | 6.58
CC(CNC(=O)c1nccc(=O)[nH]1)(Cc1ccc(F)cc1F)C1CC1 (centres unmarked) [Example 187] | 6.53

The remaining lines, values ahead:

mPTP Rat liver pIC50 | SMILES
5.9 | Cn1nc(C(=O)NC[C@H](Cc2ccc(F)c(F)c2)C2CC2)[nH]c1=S [Example 119]
6.51 | Cn1nc(C(=O)NCC2(Cc3ccc(F)cc3F)CCCO2)[nH]c1=O (centres unmarked) [Example 120]
6.31 | O=C(NCC1(Cc2ccc(F)cc2F)CC12CC2)c1cncc(=O)[nH]1 (centres unmarked) [Example 122]
<4.57 | Cn1oc(C(=O)NCC2(Cc3ccc(F)cc3F)CCC2)cc1=O [Example 126]
6.52 | CC[C@@H](Cc1ccccc1)C(C)NC(=O)c1nn(C)c(=O)[nH]1 (some centres unmarked) [Example 135]
6.39 | O=C(NC[C@H](Cc1ccc(F)cc1F)C1CC1)c1cc(=O)[nH]o1 [Example 136]
5.58 | O=C(NC[C@H](Cc1ccc(F)cc1F)C1CC1)c1coc(=O)[nH]1 [Example 137]
5.73 | O=C(NCC1(Cc2ccc(F)c(F)c2)CCC1)c1cncc(=O)[nH]1 [Example 139]
6.44 | CC[C@@H](Cc1ccc(F)cc1F)C(C)NC(=O)c1nn(C)c(=O)[nH]1 (stereo partly drawn) [Example 141, N-[(3S)-3-[(2,4-difluorophenyl)methyl]pentan-2-yl]-1-methyl-5-oxo-4H-1,2,4-triazole-3-carboxamide]
<4.57 | CCC(CNC(=O)c1nn(C)c(=O)[nH]1)Cc1ccc2cnccc2c1 (centres unmarked) [Example 144]
5.54 | O=C(NC[C@H](Cc1ccc(F)cc1F)C1CC1)c1cncc(=O)[nH]1 [Example 154]
5.33 | O=C(NC[C@H](Cc1cc(F)ccc1F)C1CC1)c1cncc(=O)[nH]1 [Example 158]
<4.57 | O=C(NCC1(Cc2cc(F)cc(F)c2)CCC1)c1cncc(=O)[nH]1 [Example 165]
<4.57 | CCC(Cc1ccc(F)cc1F)CN(C)C(=O)c1nccc(=O)[nH]1 (centres unmarked) [Example 169]
5.41 | CCC(CNC(=O)c1nn(C)c(=O)[nH]1)Cc1ccc2c(c1)CCO2 (centres unmarked) [Example 172]
<4.57 | COCc1ccccc1CC1(CNC(=O)c2nn(C)c(=O)[nH]2)CCC1 [Example 178]
5.14 | O=C(NCC1(Cc2ccc(F)cc2F)CCC1)c1nnc[nH]1 [Example 180]
